# Results from paper PMC13308190, “Endothelial progenitor cell susceptibility to DNA damaging and DDR-modulating compounds determines endothelial differentiation accuracy” (Stem Cell Research & Therapy, 2026).
# Tests used:
# Format in all cases: cell-based, mouse
# [1] = tested on: EC d4 (endothelial progenitor cells); test: AlamarBlue cell viability; details: 48 h treatment
# Procedure: (§1) Drug-induced cytotoxicity was monitored by analyzing cell viability using the AlamarBlue assay, which measures the reduction of the non-fluorescent dye resazurin (Sigma [Steinheim, Germany]) to fluorescent resorufin by living (i.e. metabolically active) cells. Fluorescence was measured in quadruplicates (excitation: 535 nm, emission: 590 nm (Tecan infinite 200, Tecan, Männedorf, Switzerland)). Relative cell viability of the untreated control was set to 100%.
# [2] = tested on: mESC; test: AlamarBlue cell viability; details: Mus musculus
# Procedure: as §1
# [3] = tested on: EC d4 (endothelial progenitor cells); test: Western blot protein expression (densitometry); details: EC d4 48 h; for CHK1 protein / RAD51 protein / gH2AX protein / p-CHK2 protein / p-KAP1 protein / p-RPA32 protein / p-p53 protein: Fig 5D
# Outline: (§2)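 Whole-cell RIPA extracts (probe sonication) quantified by DC assay; 20 µg protein resolved by SDS-PAGE, blotted to nitrocellulose. Blocked 1 h RT in 5% milk or BSA/TBST; primary antibodies 1:500–5000 overnight 4 °C, peroxidase secondary 1:2000 2 h RT. Chemiluminescent bands imaged, levels by densitometry.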
# [4] = tested on: mESC; test: Western blot protein expression (densitometry); details: mESC 24 h
# Outline: as §2
# [5] = tested on: EC d4; test: Nuclear γH2AX / 53BP1 foci (DSB); details: EC d4 48 h, equitoxic concentrations
# Procedure: (§3) DNA double-strand breaks were monitored by immunocytochemical detection of nuclear γH2AX and 53BP1 foci. Cells were fixed with 3.7% formaldehyde/PBS (15 min, RT) and permeabilized (0.3% TritonX/PBS; 15 min, RT). […] Cell suspension was mixed with 0.5% low melting point agarose and applied onto glass slides coated with 1.5% agarose. After lysis in alkaline buffer (pH 10, 1 h, 4 °C, protected from light) and DNA denaturation in precooled electrophoresis buffer (pH > 13, 25 min, 4 °C, protected from light) electrophoresis was performed (300 mA, 25 V, 4 °C, 25 min).
# [6] = tested on: mESC; test: Nuclear γH2AX / 53BP1 foci (DSB); details: mESC 24 h, equitoxic concentrations
# Procedure: as §3
# [7] = tested on: EC d6; test: Mitochondrial membrane potential (TMRM-MitoTracker Green); details: EC d6 treated 24 h
# Procedure: Mitochondrial membrane potential (ΔΨm) was analyzed by live-cell imaging using TMRM-MitoTracker Green co-staining. Cells were seeded and differentiated on Poly-D-Lysine-fibronectine-coated live-imaging dishes. For staining, cells were incubated with 200nM MitoTracker Green (Invitrogen) and 50 nM TMRM (Invitrogen) in DMEM (30 min, 37 °C, 5% CO2). After washing with PBS, live-cell microscopy was performed using a spinning disc confocal microscope (PerkinElmer) equipped with a 60x oil-immersion objective (N.A = 1.49) and a Hamamatsu C9100 camera (1000 × 1000 pixel) (excitation (MitoTracker Green): 488 nm, excitation (TMRM): 561 nm). The cells were kept at 37 °C in OptiMEM supplemented with 10 mM HEPES during imaging. The images were obtained at emission wavelength of 527 nm (W55) and 615 nm (W70) for 488 nm and 561 nm excitation, respectively.
# [8] = tested on: EC d4; test: ZO1 tight junction immunofluorescence; details: EC d4 treated 48 h
# [9] = tested on: EC d6; test: ZO1 tight junction immunofluorescence; details: analysed 2 days later
# [10] = tested on: EC d4; test: VE-cadherin cell-cell junction immunostaining; details: EC d4 treated 48 h
# [11] = concentration 1 (Dox 1/B02 1/EST 1)
# [12] = concentration 2 (Dox 2/B02 2/EST 2)
# [13] = Fig 5D, concentration 1 (Dox 1/B02 1/EST 1)
# [14] = Fig 5D, concentration 2 (Dox 2/B02 2/EST 2)
structure (smiles),measurement,setting,value
"Nc1ccccc1NC(=O)c1ccc(CNC(=O)OCc2cccnc2)cc1 [EST, entinostat]",susceptibility (cell viability) of EC d4 as compared to both mESC and EC d6,[1],significant higher
same,IC50,[2]; 24 h treatment,18.8 µM
same,IC50,[2]; 72 h treatment,2.6 µM
same,H3ac protein,[3]; Fig 1D,4.6 Fold of mESC
same,H4ac protein,[3]; Fig 1D,1853.2 Fold of mESC
same,aTubac (acetylated α-Tubulin) protein,[3]; Fig 1D,0.9 Fold of mESC
same,CHK1 protein,[3]; [11],0.7 Fold of mESC
same,RAD51 protein,[3]; [11],1.0 Fold of mESC
same,gH2AX protein,[3]; [11],9.1 Fold of mESC
same,p-CHK2 protein,[3]; [11],0.6 Fold of mESC
same,p-KAP1 protein,[3]; [11],0.0 Fold of mESC
same,p-RPA32 protein,[3]; [11],0.8 Fold of mESC
same,p-p53 protein,[3]; [11],0.4 Fold of mESC
same,CHK1 protein,[3]; [12],1.0 Fold of mESC
same,RAD51 protein,[3]; [12],0.9 Fold of mESC
same,gH2AX protein,[3]; [12],8.9 Fold of mESC
same,p-CHK2 protein,[3]; [12],0.9 Fold of mESC
same,p-KAP1 protein,[3]; [12],0.0 Fold of mESC
same,p-RPA32 protein,[3]; [12],0.9 Fold of mESC
same,p-p53 protein,[3]; [12],0.5 Fold of mESC
same,AMPKa protein,[3]; Fig 6E,0.5 Fold of mESC
same,GSK3b protein,[3]; Fig 6E,2.3 Fold of mESC
same,p-p70SK protein,[3]; Fig 6E,1.6 Fold of mESC
same,H3ac protein,[4]; Fig 1D,16.6 Fold of mESC
same,H4ac protein,[4]; Fig 1D,7426.8 Fold of mESC
same,aTubac (acetylated α-Tubulin) protein,[4]; Fig 1D,1.0 Fold of mESC
same,CHK1 protein,"[4]; Fig 4H, Eto, Dox 1, B02, EST",1.0 Fold of mESC
same,p-ATR protein,"[4]; Fig 4H, Eto, Dox 1, B02, EST",2.9 Fold of mESC
same,p-CHK1 protein,"[4]; Fig 4H, Eto, Dox 1, B02, EST",0.1 Fold of mESC
same,p-RPA32 protein,"[4]; Fig 4H, Eto, Dox 1, B02, EST",1.3 Fold of mESC
same,p-p53 protein,"[4]; Fig 4H, Eto, Dox 1, B02, EST",0.9 Fold of mESC
same,CHK1 protein,[4]; [13],0.8 Fold of mESC
same,RAD51 protein,[4]; [13],1.4 Fold of mESC
same,gH2AX protein,[4]; [13],7.7 Fold of mESC
same,p-CHK2 protein,[4]; [13],1.0 Fold of mESC
same,p-KAP1 protein,[4]; [13],2.9 Fold of mESC
same,p-RPA32 protein,[4]; [13],0.7 Fold of mESC
same,p-p53 protein,[4]; [13],0.9 Fold of mESC
same,CHK1 protein,[4]; [14],0.7 Fold of mESC
same,RAD51 protein,[4]; [14],1.4 Fold of mESC
same,gH2AX protein,[4]; [14],10.1 Fold of mESC
same,p-CHK2 protein,[4]; [14],1.0 Fold of mESC
same,p-KAP1 protein,[4]; [14],8.2 Fold of mESC
same,p-RPA32 protein,[4]; [14],0.7 Fold of mESC
same,p-p53 protein,[4]; [14],0.8 Fold of mESC
same,AMPKa protein,[4]; Fig 6E,0.5 Fold of mESC
same,GSK3b protein,[4]; Fig 6E,1.2 Fold of mESC
same,p-p70SK protein,[4]; Fig 6E,0.8 Fold of mESC
same,DSB numbers (γH2AX / 53BP1 foci),[5],clear increase
same,nuclear γH2AX foci,[6],significant increase
same,mitochondrial membrane potential,[7],remained largely unaffected
same,ZO1 containing tight junctions in EC d6 differentiated from treated EC d4,[8],did not affect
same,ZO1 assembly in treated EC d6,[9],clearly visible gaps
same,VE-cadherin cell-cell junctions in EC d6 differentiated from treated EC d4,[10],did not trigger defects
